{"source": "ChEMBL document CHEMBL4261619", "about": "“Sentulic acid isolated from Sandoricum koetjape Merr attenuates lipopolysaccharide and interferon gamma co-stimulated nitric oxide production in murine macrophage RAW264 cells” (Bioorg Med Chem Lett, 2018)", "format_in_all_cases": "cell-based", "key": {"[1]": {"target": "T1, Toll-like receptor 4 (Mus musculus) (UniProt Q9QUK6)", "T1 sequence (whole entry)": "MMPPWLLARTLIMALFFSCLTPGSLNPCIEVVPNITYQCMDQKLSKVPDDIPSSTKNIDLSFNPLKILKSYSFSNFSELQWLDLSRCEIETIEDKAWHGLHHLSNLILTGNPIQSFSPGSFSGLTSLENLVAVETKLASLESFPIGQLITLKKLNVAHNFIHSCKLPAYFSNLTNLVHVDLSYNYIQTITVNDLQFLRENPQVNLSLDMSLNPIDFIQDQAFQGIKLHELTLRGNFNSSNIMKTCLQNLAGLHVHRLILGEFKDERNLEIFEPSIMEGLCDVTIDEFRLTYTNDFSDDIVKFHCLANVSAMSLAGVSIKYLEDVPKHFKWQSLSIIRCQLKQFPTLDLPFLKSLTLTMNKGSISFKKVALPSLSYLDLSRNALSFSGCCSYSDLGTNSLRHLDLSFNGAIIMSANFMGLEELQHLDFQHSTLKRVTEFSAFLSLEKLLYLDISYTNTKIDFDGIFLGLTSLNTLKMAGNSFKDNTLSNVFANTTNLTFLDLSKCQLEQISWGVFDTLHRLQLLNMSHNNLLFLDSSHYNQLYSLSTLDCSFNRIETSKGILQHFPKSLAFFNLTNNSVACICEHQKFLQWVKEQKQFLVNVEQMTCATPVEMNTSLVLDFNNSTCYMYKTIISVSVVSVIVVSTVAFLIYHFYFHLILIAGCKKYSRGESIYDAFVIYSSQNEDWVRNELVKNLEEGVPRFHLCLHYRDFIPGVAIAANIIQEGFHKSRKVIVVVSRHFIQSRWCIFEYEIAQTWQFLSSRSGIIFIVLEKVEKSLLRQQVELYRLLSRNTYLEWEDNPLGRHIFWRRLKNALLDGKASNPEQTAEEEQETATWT", "test": "Inhibition of LPS binding to TLR4 in IFNgamma-stimulated mouse RAW264.7 cells assessed as effect on ratio of phosphorylated TAK1 to total TAK1 at 100 uM measured after 60 mins by Western blot analysis relative to beta-actin (reference value: 3.1)"}, "[2]": {"target": "T1, Toll-like receptor 4 (Mus musculus)", "test": "Inhibition of LPS binding to TLR4 in IFNgamma-stimulated mouse RAW264.7 cells assessed as effect on ratio of phosphorylated TAK1 to total TAK1 at 100 uM measured after 30 mins by Western blot analysis relative to beta-actin (reference value: 3.7)"}, "[3]": {"target": "T1, Toll-like receptor 4 (Mus musculus)", "test": "Inhibition of LPS binding to TLR4 in IFNgamma-stimulated mouse RAW264.7 cells assessed as reduction in COX2 expression at 100 uM by Western blot analysis"}, "[4]": {"target": "T1, Toll-like receptor 4 (Mus musculus)", "test": "Inhibition of LPS binding to TLR4 in IFNgamma-stimulated mouse RAW264.7 cells assessed as effect on ratio of phosphorylated TAK1 to total TAK1 at 100 uM measured after 120 mins by Western blot analysis relative to beta-actin (reference value: 3)"}, "[5]": {"target": "T1, Toll-like receptor 4 (Mus musculus)", "test": "Inhibition of LPS binding to TLR4 in IFNgamma-stimulated mouse RAW264.7 cells assessed as effect on ratio of phosphorylated ERK to total ERK at 100 uM measured after 15 mins by Western blot analysis relative to beta-actin (reference value: 0.8)"}, "[6]": {"target": "T1, Toll-like receptor 4 (Mus musculus)", "test": "Inhibition of LPS binding to TLR4 in IFNgamma-stimulated mouse RAW264.7 cells assessed as effect on ratio of phosphorylated JNK to total JNK at 100 uM measured after 120 mins by Western blot analysis relative to beta-actin (reference value: 1)"}, "[7]": {"target": "T1, Toll-like receptor 4 (Mus musculus)", "test": "Inhibition of LPS binding to TLR4 in IFNgamma-stimulated mouse RAW264.7 cells assessed as suppression of COX2 mRNA expression at 100 uM by qRT-PCR analysis"}, "[8]": {"target": "T1, Toll-like receptor 4 (Mus musculus)", "test": "Inhibition of LPS binding to TLR4 in IFNgamma-stimulated mouse RAW264.7 cells assessed as suppression of TNFalpha mRNA expression at 100 uM by qRT-PCR analysis"}, "[9]": {"target": "T1, Toll-like receptor 4 (Mus musculus)", "test": "Inhibition of LPS binding to TLR4 in IFNgamma-stimulated mouse RAW264.7 cells assessed as effect on ratio of phosphorylated NFkappaB to total NFkappaB at 100 uM measured after 120 mins by Western blot analysis relative to beta-actin (reference value: 1.2)"}, "[10]": {"target": "T1, Toll-like receptor 4 (Mus musculus)", "test": "Inhibition of LPS binding to TLR4 in IFNgamma-stimulated mouse RAW264.7 cells assessed as effect on ratio of phosphorylated AKT to total AKT at 100 uM measured after 15 mins by Western blot analysis relative to beta-actin (reference value: 1.2)"}, "[11]": {"target": "T1, Toll-like receptor 4 (Mus musculus)", "test": "Inhibition of LPS binding to TLR4 in IFNgamma-stimulated mouse RAW264.7 cells assessed as suppression of NFkappaB nuclear translocation"}, "RAW264.7 [12]": {"test_system": "RAW264.7", "test": "Inhibition of IFNgamma binding to IFNGR in LPS-stimulated mouse RAW264.7 cells assessed as effect on ratio of phosphorylated Stat1 to total Stat1 at 100 uM measured after 15 mins by Western blot analysis relative to beta-actin (reference value: 1.3)"}, "RAW264.7 [13]": {"test_system": "RAW264.7", "test": "Inhibition of IFNgamma binding to IFNGR in LPS-stimulated mouse RAW264.7 cells assessed as effect on ratio of phosphorylated Stat1 to total Stat1 at 100 uM measured after 30 mins by Western blot analysis relative to beta-actin (reference value: 1.9)"}, "[14]": {"target": "T1, Toll-like receptor 4 (Mus musculus)", "test": "Inhibition of LPS binding to TLR4 in IFNgamma-stimulated mouse RAW264.7 cells assessed as effect on ratio of phosphorylated p38 to total p38 at 100 uM measured after 120 mins by Western blot analysis relative to beta-actin (reference value: 2.2)"}, "[15]": {"target": "T1, Toll-like receptor 4 (Mus musculus)", "test": "Inhibition of LPS binding to TLR4 in IFNgamma-stimulated mouse RAW264.7 cells assessed as effect on ratio of phosphorylated AKT to total AKT at 100 uM measured after 120 mins by Western blot analysis relative to beta-actin (reference value: 1.4)"}}, "note": "Activity calls are given as the source filed them. The rule behind the calls is not given here."}
{"smiles": "C=C(C)[C@@H]1CC[C@]2(C)[C@H](CC=C3[C@@H]4CC(C)(C)CC[C@]4(C)CC[C@]32C(=O)O)[C@@]1(C)CCC(=O)O", "values": [{"measurement": "fold change (FC)", "setting": "[1]", "result": 1}, {"measurement": "fold change (FC)", "setting": "[2]", "result": 0.6}, {"measurement": "inhibition", "setting": "[3]", "result": "inactive"}, {"measurement": "fold change (FC)", "setting": "[4]", "result": 0.9}, {"measurement": "fold change (FC)", "setting": "[5]", "result": 0.8}, {"measurement": "fold change (FC)", "setting": "[6]", "result": 1.1}, {"measurement": "inhibition", "setting": "[7]", "result": "inactive"}, {"measurement": "inhibition", "setting": "[8]", "result": "Active"}, {"measurement": "fold change (FC)", "setting": "[9]", "result": 1}, {"measurement": "fold change (FC)", "setting": "[10]", "result": 1}, {"measurement": "inhibition", "setting": "[11]", "result": "Active"}, {"measurement": "fold change (FC)", "setting": "RAW264.7 [12]", "result": 1.2}, {"measurement": "fold change (FC)", "setting": "RAW264.7 [13]", "result": 1.2}, {"measurement": "fold change (FC)", "setting": "[14]", "result": 1.3}, {"measurement": "fold change (FC)", "setting": "[15]", "result": 0.9}]}
